Our source for the melting point values is patent US8088788B2, “Substituted fused[1,2] imidazo[4,5-c] ring compounds and methods” (3M Innovative Properties Company, priority 2006, dated 2012).

Regarding `Cc1ccc(S(=O)(=O)n2ccc3nc4c(N)nc5ccccc5c4n32)cc1` [Example 25, 10-[(4-Methylphenyl)sulfonyl]-10H-pyrazolo[1′,5′:1,2]imidazo[4,5-c]quinolin-6-amine], the melting point – broadly, the temperature, or range, at which the solid turns liquid – lay in the range of 204 to 206 °C.

Take `C[C@H]1CNc2nc3c(N)nc4ccccc4c3n21` [Example 27, (10S)-10-Methyl-9,10-dihydro-8H-imidazo[1′,2′:1,2]imidazo[4,5-c]quinolin-6-amine]: the melting point fell in the range of 265 to 273 °C.

As for `Nc1nc2cc(Br)ccc2c2c1nc1n2CCCO1` [Example 7, 3-Bromo-10,11-dihydro-9H-[1,3]oxazino[3′,2′:1,2]imidazo[4,5-c]quinolin-6-amine], the melting point lay within 273 to 276 °C.

In turn, `Nc1nc2ccccc2c2c1nc1n2CCCN1` [Example 5, 8,9,10,11-Tetrahydropyrimido[1′,2′:1,2]imidazo[4,5-c]quinolin-6-amine] had a melting point of over 250 °C.

Consider `CC1CCc2nc3c(N)nc4ccccc4c3n2N1` (stereo not drawn) [Example 24, 10-Methyl-8,9,10,11-tetrahydropyridazino[1′,6′:1,2]imidazo[4,5-c]quinolin-6-amine], for which the melting point is 241 to 243 °C.

For the compound `C[C@@H]1CNc2nc3c(N)nc4ccccc4c3n21` [Example 28, (10R)-10-Methyl-9,10-dihydro-8H-imidazo[1′,2′:1,2]imidazo[4,5-c]quinolin-6-amine], the melting point fell in the range of 272 to 274 °C.
